Data reported in ChEMBL document CHEMBL3627656 (Bioorg Med Chem, 2015).

Columns and labels:
[1] = Lipophilicity, LogP of the compound at pH 7.4 by reverse-phase HPLC; type: physicochemical; settings: buffer
[2] = target: T1, Prostaglandin G/H synthase 1 (Ovis aries, UniProt P05979); assay: Inhibition of ovine COX-1 using arachidonic acid after 5 mins by colorimetric method
T1 sequence (P05979 whole entry): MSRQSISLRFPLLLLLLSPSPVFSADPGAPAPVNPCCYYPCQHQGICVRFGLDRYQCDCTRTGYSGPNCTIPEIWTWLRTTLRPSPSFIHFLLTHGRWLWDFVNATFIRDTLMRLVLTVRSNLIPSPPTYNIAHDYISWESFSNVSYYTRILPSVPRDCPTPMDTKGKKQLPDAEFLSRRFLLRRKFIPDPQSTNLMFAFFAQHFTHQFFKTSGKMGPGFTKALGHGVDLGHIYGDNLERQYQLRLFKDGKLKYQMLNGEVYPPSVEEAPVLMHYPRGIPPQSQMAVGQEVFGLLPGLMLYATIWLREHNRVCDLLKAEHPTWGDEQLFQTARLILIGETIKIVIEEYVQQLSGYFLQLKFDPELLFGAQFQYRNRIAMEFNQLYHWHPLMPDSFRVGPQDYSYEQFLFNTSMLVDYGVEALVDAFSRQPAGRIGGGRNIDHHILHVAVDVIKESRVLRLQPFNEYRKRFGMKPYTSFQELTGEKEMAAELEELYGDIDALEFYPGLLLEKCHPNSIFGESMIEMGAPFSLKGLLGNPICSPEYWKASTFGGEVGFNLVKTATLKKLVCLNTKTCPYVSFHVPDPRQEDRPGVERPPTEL

[3] = Apparent permeability across apical to basolateral side in human Caco2 cells at 1 uM after 1 hr by LC-MS method; type: ADME, cell-based; settings: Caco-2
[4] = Apparent permeability across basolateral to apical side in human Caco2 cells at 1 uM after 2 hrs by LC-MS method; type: ADME, cell-based; settings: Caco-2
[5] = Apparent permeability across apical to basolateral side in human Caco2 cells at 10 uM after 1 hr by LC-MS method; type: ADME, cell-based; settings: Caco-2
[6] = Apparent permeability across basolateral to apical side in human Caco2 cells at 10 uM after 2 hrs […] by LC-MS method; type: ADME, cell-based; settings: Caco-2

| logP [1] | IC50 [2] | Papp A→B at 1 h, 1 µM [3] | Papp B→A at 2 h, 1 µM [4] | Papp A→B at 1 h, 10 µM [5] | Papp B→A at 2 h, 10 µM [6] | Compound |
| --- | --- | --- | --- | --- | --- | --- |
| 1.41 | > 100 µM | 8.3 ×10⁻⁶ cm/s | 6.8 ×10⁻⁶ cm/s | 18.2 ×10⁻⁶ cm/s | 3.1 ×10⁻⁶ cm/s | COc1ccc(Oc2cc([N+](=O)[O-])ccc2NS(C)(=O)=O)cc1 |
| 1.65 | > 100 µM | 42.7 ×10⁻⁶ cm/s | 40.4 ×10⁻⁶ cm/s | 52.3 ×10⁻⁶ cm/s | 51.9 ×10⁻⁶ cm/s | COc1cccc(Oc2cc([N+](=O)[O-])ccc2NS(C)(=O)=O)c1 |
| – | > 100 µM | – | – | – | – | CS(=O)(=O)Nc1ccc([N+](=O)[O-])cc1Oc1ccccc1 [NIMESULIDE] |
| 1.26 | > 100 µM | 11.2 ×10⁻⁶ cm/s | 8.5 ×10⁻⁶ cm/s | 38.1 ×10⁻⁶ cm/s | 25.4 ×10⁻⁶ cm/s | COc1ccccc1Oc1cc([N+](=O)[O-])ccc1NS(C)(=O)=O |
